In paper PMC5090206, “Fluselenamyl: A Novel Benzoselenazole Derivative for PET Detection of Amyloid Plaques (Aβ) in Alzheimer’s Disease” (Scientific Reports, 2016):

Experiments:
Aβ plaques [1] = biological target: T1, Aβ plaques (Homo sapiens, UniProt P05067); assay: Histochemical staining of mouse brain hippocampus sections; parameters: species or system mice; details: 10 months old
Source text: Aβ imaging ligands and disease-modifying therapeutics have been investigated using APP^+/−/PS1^+/− transgenic mice models. Further, we assessed the ability of 5 to stain ex vivo brain sections (50 μm) of age-matched APP^+/−/PS1^+/− mice and their WT (BL/6) counterparts, using established procedures. As a positive control, anti-Aβ monoclonal antibody (mHJ3.4 conjugated to Alexa Fluor 568) was used[34]. […] By comparison, 5 indicated no staining in 10 months old WT mice (SI, Fig. 3) thus indicating its target specificity.
(§1) Scientific Reports Version of August 4, 2016
(§2) µm) were cut in the coronal plane on a freezing sliding microtome and stored at -20°C. 7,8 Tissue was stained as free-floating sections. Prior to staining, tissue sections were permeabilized with PBS-Tritron-X-100 (0.25%) for 30 minutes, and then blocked with 1% non-fat dry milk in PBS-Ttiton-X-100 for 60 minutes.
Hippocampus tissue sections of APP+/-/PS1+/- and age-matched control BL/6 (WT, SI Figure 3) were incubated with fluorescent molecule 5 (100 nM dissolved in 1% ethanol in PBS) for 60 minutes, and washed 3-times with PBS-Triton-X-100.9 Thereafter, tissue sections were incubated with mouse-anti-Aβ (mHJ3.4) 7 that was directly conjugated to Alexa 568 for 90 minutes and washed 3-times with PBS-Triton-X-100. […]

Aβ1–42 fibrils = biological target: T2, Aβ1–42 fibrils (Homo sapiens, UniProt P05067); assay: Fluorescence binding assay of 5 with preformed Aβ1–42 fibrils; details: preformed Aβ1–42 aggregates in PBS, single site binding model
T2 construct: Commercially available amyloid peptide Aβ1-42; purchased
T2 sequence (P05067 672-713 limits assumed): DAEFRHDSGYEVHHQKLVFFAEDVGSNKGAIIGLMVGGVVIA
Method: For assessing the ability of 5 to bind Aβ plaques; preliminary binding assays with preformed Aβ1–42 fibrils were performed in PBS. […] Additionally, it is also noteworthy that no fluorescence was observed using Aβ aggregates alone in PBS following excitation at 392 nm (a negative control).
as §1
Preparation of Aβ fibrils.
Commercially available amyloid peptide Aβ1-42 (433 µg) was gently dissolved in PBS (1 mL, pH 7.4, 100 µM)5. The solution was incubated for 36-48 h at 37°C with continuous gentle shaking to avoid gel formation at the meniscus. The aggregated peptide suspension was stored at -80°C until needed (the […]
Binding of 5 with Aβ fibrils
In vitro binding assays to preformed fibrils were performed using literature procedures. […]
indicating binding to Aβ aggregates, similar to enhancement in fluorescence of thioflavin-T in PBS (a positive control; data not shown). Additionally, it is also noteworthy that no fluorescence was observed using Aβ aggregates alone in PBS upon excitation at 410 nm (a negative control). All measurements were made in triplicates; fluorescence of either 5 alone or fibrils at a given concentration was subtracted. […]
SI Figure 2. […] All measurements were made in triplicates; fluorescence of either 5 alone or fibrils at a given concentration was subtracted. […]

Aβ plaques [2] = biological target: T1, Aβ plaques; assay: Histological staining of human AD brain tissue sections
Method: To further assess ability of the 5 to label Aβ plaques in human brain, staining experiments were also performed with postmortem tissues from clinically-characterized AD patients[35][36] As a positive control, a highly specific anti-Aβ antibody (10D5, Eli Lilly, Indianapolis, IN) was used to ascertain the presence of Aβ plaques (Fig. 4A), using well-established procedures for assessment of Aβ plaques in postmortem brain[37]. […] Noticeably, 5 also indicated proficient and distinct labeling of plaque and leptomeningeal vessels (cerebral amyloid angiopathy; CAA) (Fig. 4B). […] This high specificity of 5 for Aβ could be attributed to presence of a benzoselenazole ring within Fluselenamyl. Overall, the ability and sensitivity of 5 to detect diffuse plaques and specificity for AD could represent an important advancement to enable PET imaging of mildly demented individuals, prior to onset of symptoms.
as §1, §2
Hippocampus tissue sections of APP+/-/PS1+/- and age-matched control BL/6 (WT, SI Figure 3) were incubated with fluorescent molecule 5 (100 nM dissolved in 1% ethanol in PBS) for 60 minutes, and washed 3-times with PBS-Triton-X-100.9 Thereafter, tissue sections were incubated with mouse-anti-Aβ (mHJ3.4) 7 that was directly conjugated to Alexa 568 for 90 minutes and washed 3-times with PBS-Triton-X-100.
Tissue sections were mounted onto SuperFrost Plus slides, dried overnight at room temperature, and then sealed with Fluoromount G (Southern Biotech, Birmingham, AL). […]
other neurodegenerative diseases (SI, Figure 4A & 4B). Sections were visualized, processed, and analyzed using a Pascal confocal microscope. […]

T1 sequence (P05067 672-711 limits assumed): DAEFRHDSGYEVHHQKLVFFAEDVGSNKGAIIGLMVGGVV

## CN(C)c1ncc(/C=C\c2nc3cc(OCCF)ccc3[se]2)cn1 [compound 5, (Z)-5-(2-(5-(2-fluoroethoxy)benzo[d][1,3]selenazol-2-yl)vinyl)-N,N-dimethylpyrimidin-2-amine]
Aβ plaques [1]; 100 nM, APP+/−/PS1+/− mice
  staining of Aβ plaques in hippocampus brain sections: abundant staining of Aβ plaques
Aβ plaques [1]; WT mice
  staining of brain sections: no staining
Aβ1–42 fibrils
  Kd: 1.58 ± 0.05 nM
Aβ plaques [2]; 2 μM, person with AD
  labeling of Aβ plaques in frontal lobe tissue sections: strikingly distinct labeling of Aβ plaques
Aβ plaques [2]; AD frontal lobe sections
  staining of diffuse plaques: labeling of numerous diffuse Aβ plaques
